US7407963B2, “Cyclopropane CGRP antagonists, medicaments containing these compounds, and method for the production thereof” (Boehringer Ingelheim Pharma GmbH & Co. KG, priority 1999, dated 2008)

| melting point [°C] | Compound |
| --- | --- |
| 235 | CN(C)CCOc1ccc2c(c1)CN(C1CCN(C(=O)[C@@H]3C[C@H]3C(=O)c3cc(Br)c(N)c(Br)c3)CC1)C(=O)N2 (relative stereo) [Item No. 16, trans-3-{1-[2-(4-amino-3,5-dibromobenzoyl)cyclopropanecarbonyl]-4-piperidinyl}-3,4-dihydro-6-[2-(dimethylamino)ethoxy]-2(1H)-quinazolinone] |
| 272 to 273 | O=C(c1ccc(Cl)cc1)[C@H]1C[C@H]1C(=O)N1CCC(N2Cc3ccccc3NC2=O)CC1 (relative stereo) [Item No. 1, cis-3-{1-[2-(4-chlorobenzoyl)cyclopropanecarbonyl]-4-piperidinyl}-3,4-dihydro-2(1H)-quinazolinone] |
| 248 | Nc1c(Br)cc(C(=O)[C@@H]2C[C@H]2C(=O)N2CCC(n3cc(-c4ccccc4C(F)(F)F)[nH]c3=O)CC2)cc1Br (relative stereo) [Item No. 18, trans-1-{1-[2-(4-amino-3,5-dibromobenzoyl)cyclopropanecarbonyl]-4-piperidinyl}-1,3-dihydro-4-[2-(trifluoromethyl)phenyl]-2(2H)-imidazolone] |
